From patent US10125134B2 (Mirati Therapeutics, Inc., priority 2016, dated 2018)
Structures can show the parent of a compound that is named as a salt. Where two headings read alike, the source gives them in different places.

What was measured:
[1] = system: NCI-H358 cells (express KRas G12C), Phospho-ERK; test: Cellular inhibition of KRas G12C: Phospho-ERK in NCI-H358 cells; type: cell-based; conditions: pERK(Thr202/Tyr204) normalized with GAPDH, NCI-H358 cells, 3 hours, read-out: IC50
Method in brief: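 IC50 derived by 4-parameter fit of GAPDH-normalized pERK(Thr202/Tyr204) signal, as percent of DMSO control. Signal came from in-cell immunodetection with infrared secondaries after 3 h compound exposure of KRas G12C NCI-H358 cells at 0.5% DMSO.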

KRas G12C = KRas G12C (Homo sapiens, UniProt P01116, C118S/C51S/C80L/G12C); test: KRas G12C Modification Assay (LCMS detection of covalent adduct); type: binding; conditions: normalized percent of control; tested at 5 μM concentration for 3 hours
Method in brief: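 Covalent modification was read by reverse-phase LC/MS of intact protein after compound exposure, each reaction stopped at its time point with 25 mM acetic acid. Unmodified-protein signal, taken as percent of total, was normalised to untreated protein and reported as POC.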

POC (KRas G12C)	Structure (SMILES)	IC50 ([1]; Homo sapiens, NCI-H358, 3 h) [nM]	IC50 ([1]; Homo sapiens) [nM]	IC50 [1] [nM]
C (“C”>50% POC)	CCN1CCC[C@H]1COc1nc2c(c(N3CCN(C(=O)/C=C/CN(C)C)[C@@H](CC#N)C3)n1)CCN(c1cccc3ccccc13)C2 [Example 400, 2-((S)-1-((E)-4-(dimethylamino)but-2-enoyl)-4-(2-(((S)-1-ethylpyrrolidin-2-yl)methoxy)-7-(naphthalen-1-yl)-5,6,7,8-tetrahydropyrido[3,4-d]pyrimidin-4-yl)piperazin-2-yl)acetonitrile]	0.1 to 1000		
B (“B”>25% POC−≤50% POC)	C=CC(=O)N1CCN(c2nc(-c3cccc(CN4CCOCC4)c3)nc3c2CCN(c2cc(O)cc4ccccc24)C3)CC1 [Example 186]		> 1000	
A (“A”≤25% POC)	C=CC(=O)N1CCN(c2nc(O[C@H](C)CN(C)C)nc3c2CCN(c2c(O)ccc(C)c2F)C3)CC1 [Example 84, (R)-1-(4-(2-((1-(dimethylamino)propan-2-yl)oxy)-7-(2-fluoro-6-hydroxy-3-methylphenyl)-5,6,7,8-tetrahydropyrido[3,4-d]pyrimidin-4-yl)piperazin-1-yl)prop-2-en-1-one]		> 1000	
C (“C”>50% POC)	C=CC(=O)N1CCN(c2nc(OC[C@@H]3C[C@@H](F)CN3C)nc3c2CCN(c2cncc(F)c2C(F)(F)F)C3)C[C@@H]1CC#N [Example 384, 2-((S)-1-acryloyl-4-(2-(((2S,4R)-4-fluoro-1-methylpyrrolidin-2-yl)methoxy)-7-(5-fluoro-4-(trifluoromethyl)pyridin-3-yl)-5,6,7,8-tetrahydropyrido[3,4-d]pyrimidin-4-yl)piperazin-2-yl)acetonitrile]		0.1 to 1000	
C (“C”>50% POC)	C=CC(=O)N1CCN(c2nc(OCCN(C)C)nc3c2CCN(c2cc(O)cc4ccccc24)C3)CC1 [Example 9, 1-(4-(2-(2-(dimethylamino)ethoxy)-7-(3-hydroxynaphthalen-1-yl)-5,6,7,8-tetrahydropyrido[3,4-d]pyrimidin-4-yl)piperazin-1-yl)prop-2-en-1-one]	> 1000		
C (“C”>50% POC)	C=CC(=O)N1CCN(c2nc(OC[C@H]3CN(C)CCO3)nc3c2CCN(c2cccc4ccccc24)C3)CC1CC#N (stereo partly drawn) [Example 270, 2-(1-acryloyl-4-(2-(((R)-4-methylmorpholin-2-yl)methoxy)-7-(naphthalen 1-yl)-5,6,7,8-tetrahydropyrido[3,4-d]pyrimidin-4-yl)piperazin-2-yl)acetonitrile]	0.1 to 1000		
C (“C”>50% POC)	C=CC(=O)N1CCN(c2nc(OC[C@H]3C[C@H](O)CN3C)nc3c2CCN(c2cccc(F)c2C(F)(F)F)C3)CC1CC#N (stereo partly drawn) [Example 414, 2-(1-acryloyl-4-(7-(3-fluoro-2-(trifluoromethyl)phenyl)-2-(((2R,4S)-4-hydroxy-1-methylpyrrolidin-2-yl)methoxy)-5,6,7,8-tetrahydropyrido[3,4-d]pyrimidin-4-yl)piperazin-2-yl)acetonitrile]	0.1 to 1000		
C (“C”>50% POC)	C=CC(=O)N1CCN(c2nc(OC[C@@H]3CCCN3C)nc3c2CCN(c2ccc(F)cc2C(F)(F)F)C3)CC1CC#N (stereo partly drawn) [Example 412, 2-(1-acryloyl-4-(7-(4-fluoro-2-(trifluoromethyl)phenyl)-2-(((S)-1-methylpyrrolidin-2-yl)methoxy)-5,6,7,8-tetrahydropyrido[3,4-d]pyrimidin-4-yl)piperazin-2-yl)acetonitrile]			0.1 to 1000
C (“C”>50% POC)	C=CC(=O)N1CCN(c2nc(OCCCN3CCOCC3)nc3c2CCN(c2cc(O)cc(C)c2C)C3)CC1 [Example 213, 1-(4-(7-(5-hydroxy-2,3-dimethylphenyl)-2-(3-morpholinopropoxy)-5,6,7,8-tetrahydropyrido[3,4-d]pyrimidin-4-yl)piperazin-1-yl)prop-2-en-1-one]		> 1000	
C (“C”>50% POC)	C=CC(=O)N1CCN(c2nc(OC[C@@H]3CCCN3C)nc3c2CCN(c2cccc4ccccc24)C3)[C@@H](C#N)C1 [Example 462, (R)-4-acryloyl-1-(2-(((S)-1-methylpyrrolidin-2-yl)methoxy)-7-(naphthalen-1-yl)-5,6,7,8-tetrahydropyrido[3,4-d]pyrimidin-4-yl)piperazine-2-carbonitrile]	> 1000		
C (“C”>50% POC)	C=CC(=O)N1CCN(c2nc(OCCN(C)C)nc3c2CCN(c2cc(O)cc4ccccc24)C3)C[C@@H]1CC#N [Example 176, 2-[(2S)-4-[2-[2-(dimethylamino)ethoxy]-7-(3-hydroxy-1-naphthyl)-6,8-dihydro-5H-pyrido[3,4-d]pyrimidin-4-yl]-1-prop-2-enoyl-piperazin-2-yl]acetonitrile]	0.1 to 1000		
C (“C”>50% POC)	C=CC(=O)N1CCN(c2nc(OC[C@@H](O)CN3CCOCC3)nc3c2CCN(c2cc(O)cc4ccccc24)C3)CC1 (single isomer, unassigned) [Example 216]	> 1000		
C (“C”>50% POC)	C=CC(=O)N1CCN(c2nc(OCCN3CCCCC3)nc3c2CCN(c2cc(O)cc4ccccc24)C3)CC1 [Example 52, 1-[4-[7-(3-hydroxy-1-naphthyl)-2-[2-(1-piperidyl)ethoxy]-6,8-dihydro-5H-pyrido[3,4-d]pyrimidin-4-yl]piperazin-1-yl]prop-2-en-1-one]	0.1 to 1000		
C (“C”>50% POC)	C/C=C/C(=O)N1CCN(c2nc(OC[C@@H]3CCCN3C)nc3c2CCN(c2cccc4cccc(C)c24)C3)C[C@@H]1CC#N [Example 372, 2-((S)-1-((E)-but-2-enoyl)-4-(7-(8-methylnaphthalen-1-yl)-2-(((S)-1-methylpyrrolidin-2-yl)methoxy)-5,6,7,8-tetrahydropyrido[3,4-d]pyrimidin-4-yl)piperazin-2-yl)acetonitrile]	0.1 to 1000		
A (“A”≤25% POC)	C=CC(=O)N1CCN(c2nc(O[C@H](C)CN(C)C)nc3c2CCN(c2cc(O)cc(OC(F)(F)F)c2)C3)CC1 [Example 91, (R)-1-(4-(2-((1-(dimethylamino)propan-2-yl)oxy)-7-(3-hydroxy-5-(trifluoromethoxy)phenyl)-5,6,7,8-tetrahydropyrido[3,4-d]pyrimidin-4-yl)piperazin-1-yl)prop-2-en-1-one]		> 1000	
C (“C”>50% POC)	C=CC(=O)N1CCN(c2nc(NC[C@@H]3CCCN3C)nc3c2CCN(c2cccc4ccccc24)C3)C[C@@H]1CC#N [Example 407, 2-((S)-1-acryloyl-4-(2-((((S)-1-methylpyrrolidin-2-yl)methyl)amino)-7-(naphthalen-1-yl)-5,6,7,8-tetrahydropyrido[3,4-d]pyrimidin-4-yl)piperazin-2-yl)acetonitrile]	> 1000		
C (“C”>50% POC)	C=CC(=O)N1CCN(c2nc(OC(C)CNC)nc3c2CCN(c2cc(O)cc4ccccc24)C3)CC1 (centres unmarked) [Example 70, 1-(4-(7-(3-hydroxynaphthalen-1-yl)-2-((1-(methylamino)propan-2-yl)oxy)-5,6,7,8-tetrahydropyrido[3,4-d]pyrimidin-4-yl)piperazin-1-yl)prop-2-en-1-one]	> 1000		
B (“B”>25% POC−≤50% POC)	C=CC(=O)N1CCN(c2nc(N3CCC(N(C)C)CC3)nc3c2CCN(c2cc(O)cc4ccccc24)C3)CC1 [Example 17, 1-(4-(2-(4-(dimethylamino)piperidin-1-yl)-7-(3-hydroxynaphthalen-1-yl)-5,6,7,8-tetrahydropyrido[3,4-d]pyrimidin-4-yl)piperazin-1-yl)prop-2-en-1-one]	> 1000		
C (“C”>50% POC)	CN1CCC[C@H]1COc1nc2c(c(N3CCN(C(=O)/C=C/CN4CCOCC4)[C@@H](CC#N)C3)n1)CCN(c1cccc3cccc(Cl)c13)C2 [Example 367, 2-[(2S)-4-[7-(8-chloro-1-naphthyl)-2-[[(2S)-1-methylpyrrolidin-2-yl]methoxy]-6,8-dihydro-5H-pyrido[3,4-d]pyrimidin-4-yl]-1-[(E)-4-morpholinobut-2-enoyl]piperazin-2-yl]acetonitrile]	0.1 to 1000		
C (“C”>50% POC)	C=CC(=O)N1CCN(c2nc(OC[C@@H]3CCCN3C(C)C)nc3c2CCN(c2cccc4ccccc24)C3)C[C@@H]1CC#N [Example 320, 2-[(2S)-4-[2-[[(2S)-1-isopropylpyrrolidin-2-yl]methoxy]-7-(1-naphthyl)-6,8-dihydro-5H-pyrido[3,4-d]pyrimidin-4-yl]-1-prop-2-enoyl-piperazin-2-yl]acetonitrile]	0.1 to 1000		

Structure (SMILES)	POC (KRas G12C)	IC50 ([1]; Homo sapiens, NCI-H358, 3 h) [nM]	IC50 ([1]; Homo sapiens) [nM]	IC50 [1] [nM]
C=CC(=O)N1CCN(c2nc(OCCCCN3CCOCC3)nc3c2CCN(c2cc(O)cc4ccccc24)C3)CC1 [Example 35, 1-(4-(7-(3-hydroxynaphthalen-1-yl)-2-(4-morpholinobutoxy)-5,6,7,8-tetrahydropyrido[3,4-d]pyrimidin-4-yl)piperazin-1-yl)prop-2-en-1-one trifluoroacetate]	C (“C”>50% POC)	> 1000		
C=CC(=O)N1CCN(c2nc(OCCN(C)C)nc3c2CCN(c2cc(O)cc4ccccc24)C3)C(CCO)C1 (centres unmarked) [Example 172, 1-(4-(2-(2-(dimethylamino)ethoxy)-7-(3-hydroxynaphthalen-1-yl)-5,6,7,8-tetrahydropyrido[3,4-d]pyrimidin-4-yl)-3-(2-hydroxyethyl)piperazin-1-yl)prop-2-en-1-one]	C (“C”>50% POC)	> 1000		
